Test results published in paper PMC3446931, “Cyclohexyl Ketone Inhibitors of Pin1 Dock in a Trans-Diaxial Cyclohexane Conformation” (PLoS ONE, 2012).

Target: Pin1 (Homo sapiens, UniProt Q13526)
Assay: alpha-chymotrypsin protease-coupled PPIase assay
Format: biochemical

Pin1, sequence (Q13526 whole entry): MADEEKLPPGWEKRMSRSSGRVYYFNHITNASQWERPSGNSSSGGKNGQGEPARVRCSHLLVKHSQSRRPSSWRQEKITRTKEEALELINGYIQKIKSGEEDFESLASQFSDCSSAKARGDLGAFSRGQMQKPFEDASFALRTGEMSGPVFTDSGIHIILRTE

Compound: CC(=O)N[C@@H](COP(=O)(O)O)C(=O)[C@@H]1CCCC[C@H]1C(=O)NCCc1c[nH]c2ccccc12 [compound 1, 1]
- IC50: 260 ± 30 µM

Compound: CC(=O)NC(COP(=O)(O)O)C(=O)C1CCCCC1C(=O)NCCc1c[nH]c2ccccc12 (racemic) [rac-2]
- IC50: 61 ± 8 µM
